Experimental data from patent US9770478B2, “Method for inhibiting neuronal cell aggregation” (NATIONAL TAIWAN NORMAL UNIVERSITY, priority 2014, dated 2017).

Key:
[1] = test system: SH-SY5Y ATXN3/Q75-GFP cells; assay: ATXN3/Q75 aggregation assay in retinoic acid differentiated neuronal cells; assay type: cell-based, human; details: one week
Description: SH-SY5Y ATXN3/Q75-GFP cells were seeded in 6-well (2×10^5/well) plate, with all trans retinoic acid (10 μM, Sigma) added at seeding time. At day 2, cells were treated with G. inflata or C. longa extract (10 μg/mL), AMGZ (0.2 μM) or licochalcone A (2 nM) for 8 hr, and then doxycycline (5 μg/mL) was added to induce ATXN3/Q75-GFP expression. After one week, cells were stained with Hoechst 33342 and aggregation percentage was assessed as described. The morphologic differentiation of untreated cells including total outgrowth, processes, and branches was assessed by using HCA system.

[2] = test system: HEK-293 cells; assay: IC50 cytotoxicity (MTT cell proliferation) / effective dose ratio
Description: H.; Kung, P. J.; Lin, T. H.; Wu, Y. C.; Wu, Y. R.; Chen, Y. C.; Lee-Chen, G. J.; Chen, C. […] Cell proliferation was measured based upon the reduction of 3-(4,5-dimethylthiazol-2-yl]-2,5-diphenyltetrazolium bromide (MTT). Briefly, 5×10^4 cells were plated into 48-well dishes, grown for 20 hr and treated with herbal extract (5˜30 mg/mL G. inflata or C. longa) or pure compound (100 nM˜1 mM AMGZ or licochalcone A). After one day, 20 μL MTT (5 mg/mL in PBS, Sigma) was added to cells and incubated for 2 hr. The absorbance of the insoluble purple formazan product was measured at 570 nm by a Bio-Tek μQuant Universal Microplate Spectrophotometer.
Then doxycycline (10 μg/mL, BD) and oxaliplatin (5 μM, Sigma) were added for 6 days.

[3] = DPPH free radical scavenging assay; assay type: biochemical; details: 100 μM DPPH; for EC50: 30 min, room temperature
Description: The free radical scavenging activities of tested compounds and herbal extracts were determined using the stable 1,1-diphenyl-2-picrylhydrazyl (DPPH, Sigma) free radical assay (see Li, N.; Liu, J. H.; Zhang, J.; Yu, B. Y. Comparative evaluation of cytotoxicity and antioxidative activity of 20 flavonoids. Journal of Agricultural and Food Chemistry 56:3876-3883; 2008) with some modifications. Briefly, radical scavenging activity was measured in an ethanol mixture containing 100 μM DPPH radical solution and tested compounds (10˜200 μM) or herbal extracts (0.2˜4 mg/mL) The mixture was vortexed for 15 sec and then left to stand at room temperature for 30 min. Then, the scavenging capacity was measured by monitoring the decrease in absorbance at 517 nm by a Thermo Scientific Multiskan GO Microplate Spectrophotometer. The radical scavenging activity was calculated using the formula: 1−(absorbance of sample/absorbance of control)×100%. The antioxidative activity expressed as EC50 was defined as the concentration of the compounds required for inhibition of the formation of DPPH radicals by 50%.

[4] = test system: 293 ATXN3/Q75-GFP cells; assay: ATXN3/Q75 aggregation assay, high-content analysis; assay type: cell-based, human
Description: Glycyrrhizin is metabolized to 18β-glycyrrhetinic acid by intestinal bacteria. Therefore, ATXN3/Q75 aggregation assay was further performed with different concentrations of the 18β-glycyrrhetinic acid (0.1˜10 μM) and SAHA (0.1 μM) by the aforementioned method, aggregation percentage was assessed by HCA system.

C=CC(C)(C)c1cc(/C=C/C(=O)c2ccc(O)cc2)c(OC)cc1O [licochalcone A]
aggregation reduction in ATXN3/Q75 expressed neuronal cells ([1]; 2 nM): 10%
IC50 cytotoxicity/effective dose ratio ([2]; human, 1 day): 3×10^5
EC50 [3]: 121 µM

O=c1c(O)c(-c2ccc(O)cc2)oc2cc(O)cc(O)c12 [Kaempferol, reference compound]
EC50 [3]: 27 µM

CC1(C)[C@@H](O)CC[C@]2(C)[C@H]3C(=O)C=C4[C@@H]5C[C@@](C)(C(=O)O)CC[C@]5(C)CC[C@@]4(C)[C@]3(C)CC[C@@H]12 [18β-glycyrrhetinic acid]
ATXN3/Q75 aggregation as compared to untreated cells ([4]; 10 μM): 81%

CC1(C)[C@@H](O[C@H]2O[C@H](C(=O)O)[C@@H](O)[C@H](O)[C@H]2O[C@@H]2O[C@H](C(=O)O)[C@@H](O)[C@H](O)[C@H]2O)CC[C@]2(C)[C@H]3C(=O)C=C4[C@@H]5C[C@@](C)(C(=O)O)CC[C@]5(C)CC[C@@]4(C)[C@]3(C)CC[C@@H]12 [AMGZ, ammonium glycyrrhizinate]
aggregation reduction in ATXN3/Q75 expressed neuronal cells ([1]; 0.2 μM): 9%
IC50 cytotoxicity/effective dose ratio ([2]; effective = reduced the ATXN3/Q75 aggregation to 85% or lower): > 10000
DPPH scavenging activity ([3]; tested compounds 10˜200 μM): no detectable DPPH scavenging activity

O=C(CCCCCCC(=O)Nc1ccccc1)NO [SAHA, suberoylanilide hydroxamic acid, reference compound]
ATXN3/Q75 aggregation as compared to untreated cells ([4]; 100 nM, 8 hr pretreatment, then doxycycline and oxaliplatin 6 days): 85%
